Results on one compound are retold here after patent US20210106581A1, “Treatment Of Liver Diseases” (Melior Pharmaceuticals I, Inc., priority 2018, published 2021).

Common to all, as to type: in vivo
Assay [1] relates to male C57BL/6 mice on modified high fat diet (mHFD). The experiment in a line: Modified high fat diet (mHFD) mouse model, serum and liver triglycerides (Example 1). Conditions: 30 mg/kg or 100 mg/kg i.p. once daily, 8 weeks. How it is done:
The animal model was performed essentially as described in Cong et al., Life Sciences, 2008, 82, 983-990. Briefly, male C57BL/6 mice at 6 weeks of age were fed, ad libitum, a modified high fat diet (mHFD) provided by Research Diets, and described in Cong et al. One group of control animals (n=11) remained on standard diet. All animals remained on their respective diets for 23 weeks (29 weeks of age). At that time, animals continued to remain on their respective diets and treatment regimens began. The group of animals on standard diet and one group of animals on mHFD (n=9) received vehicle administered by intraperitoneal injection, once daily. Two additional groups of animals on mHFD (n=8) received Compound 102 administration by intraperitoneal injection, once daily at either 30 mg/kg or 100 mg/kg. Compound 102 was formulated in, and the vehicle used was, 20% hydroxypropyl beta cyclodextrin (HPBCD). Treatment regimen continued for an additional 8 weeks while the animals remained on their respective diets. At the end of 8 weeks of treatment, animals were fasted for 6 hours. […] Serum triglycerides and liver triglyceride were measured from the respective samples using Triglyceride assay kit (Wako Diagnostics, Richmond, Va.; Cat No 461-8992). Data were averaged and are expressed as the average SEM. Data were analyzed by two-way repeated measures ANOVA followed by a Dunnett's post hoc test. […]

Assay [2] has as its system male C57BL/6NCrl mice on modified high fat diet (mHFD). The assay can be described thus: Extended mHFD NASH mouse study, 8-week treatment (Example 2). The source says:
The modified high fat diet (mHFD) was obtained from Research Diets, Inc. (New Brunswick, N.J.) and was formulated according to Cong et al., supra. The mHFD contained 60% fat, 14% protein, and 26% carbohydrate, with total energy content of 21.0 kJ/g. The mHFD contained a low concentration of choline bicitrate a (0.6 g/kg) and DL-methionine (1.5 g/kg). Fatty acid composition of the fats (mainly from lard) in mHFD was 36% saturated fatty acids, 45% monounsaturated fatty acids, and 19% polyunsaturated fatty acids (PUFA).
Male C57BL/6NCrl mice were obtained from Charles River Laboratories (Wilmington, Mass.). Mice were maintained in microisolator cages, in groups of no more than 4 animals per cage, and on a 12-hour light cycle. Food and water were provided ad libitum. On the last day of the study, all mice were sacrificed by cervical dislocation after a 4-hour food deprivation. Livers were rapidly dissected and part of each liver was cut and fixed in formaldehyde saline (4%) solution for histological analysis. The rest of the liver was snap frozen in liquid nitrogen, and stored at −70° C. until use.
Mice were acquired at 3-4 weeks of age (body weight of about 11-12 g). Mice were fed a standard chow (Control group) or mHFD (Model group) for 22 weeks. […] At week-22, based on body weight consideration, the mHFD-fed mice were screened and distributed in a balanced fashion into 3 groups for the compound treatment study (Table 1).
During the 8-week drug treatment phase, all animals (except for standard-chow controls) remain on the mHFD diet. During the treatment period, the summary of measurement schedule is as below: • 1) Body weight (BW) was taken once a week. • 2) Terminal blood and whole Liver were collected. • 3) Hepatic histology (NAS score) was assessed.
Livers were removed at necropsy and fixed in 10% buffered formalin. Sections were processed to paraffin by routine histological methods and 4 μm sections were stained with hematoxylin and eosin. Sections were evaluated under light microscopy by a board-certified veterinary pathologist for identification of proliferative lesions as well as severity scoring of lesions associated with steatohepatitis. The pathologist was blinded to the treatment status. Steatohepatitis parameters were scored and classified according to a standardized histological scoring system for NASH described by Kleiner et al., Hepatology, 2005, 41, 1313-1321. In brief, individual livers were evaluated for steatosis, lobular inflammation, and ballooning degeneration of hepatocytes, and given a score of (03) for steatosis and inflammation, and (02) for ballooning degeneration, using previously defined criteria (see below). An NAFLD activity score (NAS) was obtained by summing the individual parameter scores.
Steatosis Location: 0: Predominantly zone 3 (centrilobular); 1: Predominantly zone 1 (periportal); 2: Azonal (defined as when the pattern could not be fit into one of the other categories or marked architectural change); and 3: Panacinar (defined as involving all zones of the liver equally).
Inflammation: 0: No foci; 1: <2 foci per 200× field; 2: 2-4 foci/200× field; and 3: >4 foci/200× field.
Ballooning Degeneration: 0: None; 1: Few balloon cells; and 2: Many cells/prominent ballooning.
Data are expressed as the average±SEM at each week and analyzed by Unpaired T-tests as applicable using Prism® software (GraphPad Software, Inc., Las Jolla, Calif.). A p-value of less than 0.05 indicates a significant difference between treatment groups.

The subject of assay [3] is male BALB/c mice with CCl4-induced liver fibrosis. The experiment in a line: CCl4-induced liver fibrosis mouse model (Example 3). How it is done:
In the following study, 6 to 7 week old male BALB/c mice (25-30 g) were randomized based on body weight after 7-day of CCl4 injections (3 times). Mice were fed standard rodent chow and water ad libitum. The mice were divided into 4 groups, with 12 mice per group. The mice were administered a dose volume of 10 mL/kg (MLR-1023), 2.5 mL/kg (CCl4), each in a formulation of 20% HBPCD/saline and corn oil intraperitoneally (i.p.). The dose level of MLR-1023 was 30 and 100 mg per kg, and the dose level of CCl4 was 5%. The dose frequency of MLR-1023 was once daily (QD), and the dose frequency of CCl4 was 3 times a week (Monday, Wednesday, and Friday). The study duration was 28 days, with MLR-1023 treatment started from day 8 to day 28. CCl4 was obtained from Sigma-Aldrich (St. Louis, Mo.). A commercial kit was used for analyzing liver hydroxyproline content (BioVision, Inc.; Milpitas, Calif.). ALT and AST kits were purchased from BIOO Science (Austin, Tex.). All other reagents used in the study were of analytical grade. Male BALB/c mice were obtained from Charles River Laboratories (Wilmington, Mass.). On the last day of the study all mice were sacrificed by cervical dislocation. Blood/serum samples were collected for the assays of liver enzymes (ALT and AST). Livers were rapidly dissected and part of each liver was cut and fixed in formaldehyde saline (4%) solution for histological analysis; the remainder of the liver was snap frozen in liquid nitrogen, and stored at −70° C. until use. Starting on Day 1, animals were administered i.p. with 5% CCl4 or corn oil (vehicle for CCl4 solution) three days per week (Monday, Wednesday, and Friday) for 4 weeks. CCl4 was formulated as a […] with the dose volume of 2.5 mL/kg, and was freshly formulated on a weekly basis. Animals were weighed weekly. Test compounds and vehicle administrations were performed from Day 8 to Day 28. At the end of study, blood was drawn through retro-orbital punctures for serum collection. The whole liver was removed. One lobe was placed in a tube containing 10% formalin for histopathology, the remainder of the liver lobes were collected and snap frozen for further hydroxyproline assay. Homogenized liver samples were evaluated for hydroxyproline content to assess hepatic collagen levels. Serum was separated by centrifugation at 4° C. and analyzed immediately or stored at −70° C. Serum ALT and AST levels were determined by colorimetric method and using procedures described by the kit manufacturers. Hepatic hydroxyproline content was measured by colorimetric method and expressed as μg/mg wet liver weight. Livers were removed at necropsy and fixed in 10% buffered formalin. Sections of liver were processed routinely, sectioned at approximately 4 microns, and stained with hematoxylin and eosin (H&E) or picrosirius red (PSR). Glass slides were evaluated using light microscopy by a board-certified veterinary/toxicology pathologist in a blind manner. Two sections from each animal were examined. Five animals from each group were randomly chosen for histology analysis. The severity of histologic findings was scored using the Society of Toxicologic Pathology best practices (1=minimal, 2=mild, 3=moderate, 4=marked, 5=Severe). Fibrosis value is corresponding to the fraction of centrilobular areas affected by fibrosis (1=about <10%, 2=about 11-30%, 3=about […], 4=about […], 5=about 71-100%). Liver fibrosis is characterized by increased numbers of fibroblasts and collagen fibers in liver sinusoids that partially, or completely, bridged centrilobular areas. PSR staining severity generally correlated with the mean severity of fibrosis. Overall increased collagen deposition and bridging fibrosis are identified with PSR stain. […]

Setting [4] is: both treatments (30 and 100 mpk), H&E, FIG. 11.

“Also recorded” adds a separate entry of the source.

As for `Cc1cccc(Oc2cnc(=O)[nH]c2)c1` [MLR-1023, tolimidone], the “circulating serum triglyceride levels” value in assay [1] (6 h fasted, FIG. 1) was “significantly reduced”. In assay [1] (FIG. 2), the “accumulation of triglycerides in the liver” value is on record as “significantly reduced”. For the same compound, the “NAFLD activity score (NAS)” value in assay [2] (30 mpk (30 mg/kg) IP, vs MD-vehicle, FIG. 6) is recorded as “significantly reduced”. Also, the body weight entry in assay [2] (30 mpk IP, 8-week treatment, vs MD-vehicle, FIG. 3) is listed as “significantly reduced”; in assay [2] (100 mpk IP, 8-week treatment, vs MD-vehicle, FIG. 3), “trend in reduction (p=0.056)”; in assay [2] (FIG. 3 legend, dose not stated), “significantly reduced”. For the same compound, the liver weight result in assay [2] (30 mpk IP, 8-week treatment, vs MD-vehicle, FIG. 4) was “significantly reduced”; in assay [2] (100 mpk IP, 8-week treatment, vs MD-vehicle, FIG. 4), “significantly reduced”; in assay [2] (FIG. 4 legend, dose not stated), “significantly reduced”. Further, the “TG content in liver” value in assay [2] (30 mpk IP, vs MD-vehicle, FIG. 2) was “significantly reduced”. Further, in assay [2] (100 mpk, FIG. 7), the hepatocellular ballooning entry is “significantly reduced”. In assay [2] (dose not stated, FIGS. 7, 8A, 8B), the “hepatocellular ballooning (histology)” value is given as “reduced amount”. Besides, the “steatosis (histology)” value in assay [2] (dose not stated, FIGS. 8A, 8B) is reported as “reduced”. Moreover, the CCl4-induced collagen deposition result in assay [3] (100 mg per kg, 21-day treatment) is reported as “significantly reduced”. In assay [3] (100 mg per kg, 21-day treatment, PSR), the fibrosis percentage result is given as “reduced”. Also, the “scores of hepatic inflammation” value in assay [3] (100 mg per kg, H&E, vs CCl4-vehicle, FIG. 12) is on record as “reduced”. The “CCl4-induced increase of liver enzymes, especially AST” value in assay [3] (21-day treatment, summary statement) is on record as “mild improvement; also recorded: mild effects”. Moreover, in assay [3] (30 and 100 mg per kg i.p. QD day 8-28, vs CCl4-vehicle, dose-dependent manner, FIG. 9), the “serum AST levels” value was “trended towards improving”. The hepatic hydroxyproline levels entry in assay [3] (30 and 100 mg per kg i.p. QD day 8-28, vs CCl4-vehicle, dose-dependent manner, FIG. 10) is recorded as “significantly reduced”. Further, the “serum ALT levels” value in assay [3] (30 and 100 mg per kg i.p. QD day 8-28, vs CCl4-vehicle, FIG. 9) is “did not significantly affect”. Also, in assay [3] (30 and 100 mg per kg, H&E, vs CCl4-vehicle, FIG. 12), the “scores of hepatic necrosis/mineralization” value is “trended towards reducing; also recorded: reduced”. In assay [3] (setting [4]), the “inflammation (pathologist's general assessment)” value was “still present”. The “necrosis (pathologist's general assessment)” value in assay [3] (setting [4]) is “dose-related effect”. Also, the “fibrosis (pathologist's general assessment)” value in assay [3] (both treatments (30 and 100 mpk), PSR, FIG. 11) is “dose-related effect”.
